Measured values reported in publication PMC8191813 (Antiviral research, 2017).
Like-named read-outs stand apart in the source and are kept apart here.

Tests used:
in vitro = conditions: human
CCHFV/ZsG [1] = experiment: microbe, parasite or virus in culture; format: cell-based, Crimean-Congo hemorrhagic fever virus
woodchucks = conditions: in vivo; cited from earlier work
rats = conditions: rat, in vivo; cited from earlier work
wild-type CCHFV = experiment: microbe, parasite or virus in culture; format: cell-based, Crimean-Congo hemorrhagic fever virus; conditions: for EC50: Orthonairovirus haemorrhagiae, Huh-7, read-out: EC50 CCHFV
CCHF = conditions: in vivo; cited from earlier work
CCHFV = conditions: read-out: previously reported EC50; cited from earlier work
CCHFV/ZsG [2] = experiment: microbe, parasite or virus in culture; format: cell-based, Crimean-Congo hemorrhagic fever virus; conditions: Orthonairovirus haemorrhagiae, SW13, read-out: EC50 CCHFV/ZsG
[3] = Orthonairovirus haemorrhagiae, Huh-7, read-out: EC50 CCHFV/ZsG

| Structure (SMILES) | viability (in vitro) [%] | ZsG fluorescence in initial screen (CCHFV/ZsG [1]) | EC50 (CCHFV/ZsG [1]; [3]) [nM] | adverse clinical effects (woodchucks) | adverse clinical effects (rats) | cytotoxicity, result in words (SW13 cells) | cytotoxicity, result in words (Huh7 cells) | CCHFV titer reduction compared to DMSO only-treated control (wild-type CCHFV) | selectivity index (SI) CCHFV (wild-type CCHFV) | virus detection at the highest concentration of compound tested (wild-type CCHFV) | EC50 (wild-type CCHFV) [nM] | CC50 (in vitro) [nM] | potency relative to T-705 (CCHFV/ZsG [1]) [×] | potency relative to ribavirin (CCHFV/ZsG [1]) [×] | selectivity index (SI) CCHFV/ZsG (CCHFV/ZsG [1]) | efficacy in mouse model of CCHF (CCHF) | EC50 (CCHFV) [nM] | EC50 (CCHFV/ZsG [2]) [nM] | EC50 (CCHFV/ZsG [1]; read-out: EC50 CCHFV/ZsG) [nM] |
| --- | --- | --- | --- | --- | --- | --- | --- | --- | --- | --- | --- | --- | --- | --- | --- | --- | --- | --- | --- |
| COc1c(C)c2c(c(O)c1C/C=C(\C)CCC(=O)OCCN1CCOCC1)C(=O)OC2 [MMF, mycophenolate mofetil] | > 80 | < 30 % of control | 390 ± 130 | – | – | – | – | – | – | – | – | – | – | – | – | – | – | – | – |
| Nc1ccn([C@@H]2O[C@H](CO)[C@@H](O)[C@H]2F)c(=O)n1 [2′-dFC, 2′-deoxy-2′-fluorocytidine] | > 80 | < 30 % of control | 61 | no adverse clinical effects | no adverse clinical effects | no associated cytotoxicity | no cytotoxicity | approximately 2 logs | 0.031 (> 1613) | no virus detected | 31 | > 50000 | 17 | 200 | 0.061 ± 0.018 (> 820) | – | – | – | – |
| NC(=O)c1nc(F)c[nH]c1=O [T-705, favipiravir] | > 80 | < 30 % of control | 1030 | – | – | – | – | approximately 2 logs | 0.88 (> 57) | no virus detected | 880 | > 50000 | – | – | 1.03 ± 0.16 (> 50) | higher efficacy than ribavirin | 7000 | – | – |
| COc1c(C)c2c(c(O)c1C/C=C(\C)CCC(=O)O)C(=O)OC2 [Mycophenolic acid, mycophenolic acid] | – | – | 100 | – | – | – | – | – | 0.19 (9) | – | 190 | 1780 ± 250 | – | – | 0.10 ± 0.01 (18) | – | – | – | – |
| NC(=O)c1ncn([C@@H]2O[C@H](CO)[C@@H](O)[C@H]2O)n1 [Ribavirin, ribavirin] | – | – | 12500 ± 2600 | – | – | – | – | – | 5.69 (> 26) | no virus detected | 5690 | > 150000 | – | – | 12.48 ± 2.61 (> 10) | – | 11500 | 5690 ± 710 | 12500 |
